Test: xn = mol fraction of the nth substance listed

CCCCN(CCCC)CCCC + CCCCCCCCCCO
viscosity [mPa·s], 101.3 kPa
Settings	x1 = 0.0952	x1 = 0.1901	x1 = 0.2866	x1 = 0.3816	x1 = 0.5195	x1 = 0.6185	x1 = 0.7198	x1 = 0.8029	x1 = 0.9006
303.15 K	7.192	5.845	4.754	3.874	2.91	2.358	1.928	1.658	1.378
313.15 K	5.659	4.596	3.721	3.026	2.288	1.892	1.586	1.388	1.175

CCCCOC(=O)c1ccccc1C(=O)OCCCC + CCCCCCCCCCO
303.15 K, 101.33 kPa
Settings	viscosity [mPa·s]
x1 = 0.1004	8.572
x1 = 0.1995	8.061
x1 = 0.3035	7.851
x1 = 0.4004	7.91
x1 = 0.4902	8.075
x1 = 0.5977	8.479
x1 = 0.6985	9.095
x1 = 0.7997	9.985
x1 = 0.8948	11.18

O=C1c2ccccc2C(=O)C1(O)O + CCCCCCCCCO
101.3 kPa, x1 = 0.25
Settings	viscosity [mPa·s]
293.15 K	38.14
298.15 K	27.87
303.15 K	21.73
308.15 K	17.37
313.15 K	13.74
318.15 K	11.01
323.15 K	9.139

CCCCN(CCCC)CCCC + CCCCCCCCO
viscosity [mPa·s], 101.3 kPa
Settings	x1 = 0.0904	x1 = 0.1906	x1 = 0.2864	x1 = 0.4192	x1 = 0.5184	x1 = 0.6196	x1 = 0.7144	x1 = 0.8124	x1 = 0.8987
303.15 K	5.287	4.464	3.765	2.935	2.43	2.025	1.723	1.487	1.33
313.15 K	3.767	3.171	2.698	2.185	1.872	1.619	1.424	1.25	1.128

CCCCOC(=O)c1ccccc1C(=O)OCCCC + CCCCCCCCO
303.15 K, 101.33 kPa
Settings	viscosity [mPa·s]
x1 = 0.1003	5.9
x1 = 0.2011	5.876
x1 = 0.3001	6.078
x1 = 0.3996	6.444
x1 = 0.5	6.901
x1 = 0.5999	7.6
x1 = 0.6958	8.396
x1 = 0.7975	9.53
x1 = 0.898	11.05

C=CC#N + CCCCCCCO
viscosity [mPa·s], 101.33 kPa
Settings	x1 = 0.1047	x1 = 0.206	x1 = 0.3057	x1 = 0.4142	x1 = 0.5106	x1 = 0.6206	x1 = 0.7044	x1 = 0.8027	x1 = 0.9033
298.15 K	4.015	2.967	2.212	1.627	1.238	0.891	0.705	0.54	0.425
303.15 K	3.469	2.587	1.958	1.441	–	0.815	0.652	0.508	0.403
308.15 K	3	2.273	1.73	1.296	1.013	0.75	0.605	0.478	0.383

CCCCN(CCCC)CCCC + CCCCCCCO
viscosity [mPa·s], 101.3 kPa
Settings	x1 = 0.1067	x1 = 0.1877	x1 = 0.2841	x1 = 0.4197	x1 = 0.5183	x1 = 0.619	x1 = 0.7191	x1 = 0.8008	x1 = 0.89
303.15 K	4.133	3.677	3.178	2.558	2.191	1.881	1.644	1.482	1.328
313.15 K	3.033	2.69	2.355	1.956	1.709	1.497	1.33	1.217	1.1

C=CC#N + CCCCCCO
viscosity [mPa·s], 101.33 kPa
Settings	x1 = 0.1023	x1 = 0.2036	x1 = 0.3089	x1 = 0.4105	x1 = 0.5081	x1 = 0.6117	x1 = 0.7084	x1 = 0.8056	x1 = 0.9019
298.15 K	3.139	2.308	1.705	1.3	1.006	0.774	0.617	0.495	0.41
303.15 K	2.727	2.03	1.522	1.175	0.916	0.712	0.571	0.466	0.388
308.15 K	2.38	1.799	1.365	1.063	0.84	0.661	0.533	0.439	0.37

C=CC#N + CCCCCO
viscosity [mPa·s], 101.33 kPa
Settings	x1 = 0.1032	x1 = 0.2077	x1 = 0.3006	x1 = 0.4053	x1 = 0.5035	x1 = 0.6091	x1 = 0.7025	x1 = 0.8042	x1 = 0.9004
298.15 K	2.405	1.777	1.384	1.064	0.847	0.668	0.558	0.464	0.401
303.15 K	2.107	1.58	1.24	0.965	0.774	0.619	0.52	0.436	0.382
308.15 K	1.86	1.413	1.122	0.879	0.715	0.577	0.488	0.416	0.364

CC(=O)CC(C)=O + CCCCCO
298.15 K, 101 kPa
Settings	viscosity [mPa·s]
x1 = 0.1	2.509
x1 = 0.2	1.944
x1 = 0.3	1.55
x1 = 0.4	1.263
x1 = 0.5	1.05
x1 = 0.6	0.897
x1 = 0.7	0.796
x1 = 0.8	0.743
x1 = 0.9	0.722

CCC(C)(C)O + CCCCCO
viscosity [mPa·s], 101 kPa
Settings	298.15 K	318.15 K
x2 = 0.051	3.666	1.715
x2 = 0.1017	3.812	1.782
x2 = 0.2023	4.096	1.867
x2 = 0.3041	4.309	1.974
x2 = 0.4034	4.432	2.058
x2 = 0.4972	4.456	2.122
x2 = 0.5939	4.415	2.167
x2 = 0.6991	4.251	2.195
x2 = 0.8003	4.112	2.187
x2 = 0.9012	3.939	2.174
x2 = 0.9496	3.831	2.161

CCCCN(CCCC)CCCC + CCCCCO
viscosity [mPa·s], 101.3 kPa
Settings	x1 = 0.0945	x1 = 0.1881	x1 = 0.2845	x1 = 0.3843	x1 = 0.4829	x1 = 0.6148	x1 = 0.7041	x1 = 0.798	x1 = 0.8912
303.15 K	2.622	2.405	2.18	1.961	1.786	1.581	1.458	1.365	1.262
313.15 K	2.122	1.91	1.714	1.551	1.415	1.266	1.188	1.118	1.054

CN(C)c1ccccc1 + CCCCCO
303.15 K, 101 kPa
Settings	viscosity [mPa·s]
x1 = 0.0799	2.75
x1 = 0.121	2.704
x1 = 0.2034	2.605
x1 = 0.2784	2.506
x1 = 0.3584	2.392
x1 = 0.4284	2.284
x1 = 0.5047	2.158
x1 = 0.5722	2.039
x1 = 0.6406	1.913
x1 = 0.7103	1.777
x1 = 0.781	1.635
x1 = 0.8168	1.562
x1 = 0.9058	1.374

C=CC#N + CCCCO
viscosity [mPa·s], 101.33 kPa
Settings	x1 = 0.1054	x1 = 0.2059	x1 = 0.305	x1 = 0.4063	x1 = 0.5073	x1 = 0.6039	x1 = 0.6962	x1 = 0.8074	x1 = 0.9006
298.15 K	1.797	1.363	1.065	0.849	0.69	0.581	0.499	0.429	0.386
303.15 K	1.596	1.221	0.965	0.776	0.637	0.539	0.468	0.407	0.369
308.15 K	1.424	1.102	0.881	0.714	0.594	0.505	0.442	0.385	0.352

CC(=O)CC(C)=O + CCCCO
303.15 K, 101 kPa
Settings	viscosity [mPa·s]
x1 = 0.0509	1.941
x1 = 0.1003	1.7
x1 = 0.3007	1.142
x1 = 0.5004	0.887
x1 = 0.7	0.751
x1 = 0.8998	0.692
x1 = 0.9504	0.678

CC(C)(C)Br + CCCCO
viscosity [mPa·s], 101.3 kPa
Settings	x1 = 0.0518	x1 = 0.106	x1 = 0.2079	x1 = 0.3109	x1 = 0.4067	x1 = 0.5054	x1 = 0.6023	x1 = 0.7004	x1 = 0.7993	x1 = 0.901
298.15 K	2.264	2.002	1.638	1.377	1.203	1.055	0.9468	0.8591	0.7905	0.7428
313.15 K	1.575	1.41	1.19	1.02	0.9075	0.8127	0.7355	0.6723	0.6264	0.5951

CCCCN(CCCC)CCCC + CCCCO
viscosity [mPa·s]
Settings	303.15 K	313.15 K
101 kPa, x1 = 0.007767	2.245	–
101 kPa, x1 = 0.01457	2.236	–
101 kPa, x1 = 0.02285	2.226	–
101 kPa, x1 = 0.03362	2.211	–
101 kPa, x1 = 0.04436	2.197	–
101 kPa, x1 = 0.04946	2.191	–
101 kPa, x1 = 0.05954	2.178	–
101 kPa, x1 = 0.07271	2.16	–
101 kPa, x1 = 0.08924	2.138	–
101.3 kPa, x1 = 0.0942	2.159	1.71
101.3 kPa, x1 = 0.1897	2.028	1.608
101.3 kPa, x1 = 0.3149	1.877	1.481
101.3 kPa, x1 = 0.4192	1.766	1.393
101.3 kPa, x1 = 0.5187	1.65	1.311
101.3 kPa, x1 = 0.618	1.542	1.231
101.3 kPa, x1 = 0.7149	1.448	1.154
101.3 kPa, x1 = 0.8007	1.365	1.102
101.3 kPa, x1 = 0.9031	1.256	1.047

CN(C)c1ccccc1 + CCCCO
303.15 K, 101 kPa
Settings	viscosity [mPa·s]
x1 = 0.0489	2.2
x1 = 0.0742	2.187
x1 = 0.1249	2.156
x1 = 0.1802	2.12
x1 = 0.2362	2.079
x1 = 0.265	2.056
x1 = 0.2944	2.032
x1 = 0.3549	1.978
x1 = 0.419	1.915
x1 = 0.4854	1.844
x1 = 0.5905	1.722
x1 = 0.7423	1.526
x1 = 0.9099	1.295
